The subject of series [1] is hCSE. Also on record: method as in PMID 34112687, PMID 37110802, doi:10.1016/j.mencom.2024.02.030, PMID 39970094, PMID 38771206. The settings on record: Figure 1; cited from earlier work.
In series [2] the target is bCSE. The settings on record: cited from earlier work.
The test system of series [3] is bCSE. Also on record: method as in PMID 34112687, PMID 37110802, doi:10.1016/j.mencom.2024.02.030, PMID 39970094, PMID 38771206. The settings on record: Figure 1; cited from earlier work.
Series [4] has as its system hydrogen sulfide production by B. subtilis 168 cells. In words: Hydrogen sulfide generation, lead acetate paper strips. In kind it is cell-based, Bacillus subtilis. The note with it: B. subtilis cell culture, Figure 2F. As for the experimental part:
The generation of hydrogen sulfide in B. subtilis cells was monitored according to the published protocol using lead acetate as a colorimetric sensor [29]. The inner surface of a cell culture flask was equipped above the level of the liquid with a standardized paper strip soaked with 2% aq. Pb(OAc)2. Overnight cultures were diluted with LB (1:50) and incubated at 37 °C under aeration conditions for 16–18 h. The test compounds (MNS1 and NL2) were used at 32 μM; LB without supplements was used as a negative control. Paper strips stained with the formed PbS precipitate were scanned using an AlphaImager gel imaging system (BioTechne, USA, Minneapolis, Minnesota). The results were normalized to the optical density of the culture.
(§1) Figure 2 Determination of the potentiating properties of compounds. Representative growth curves of B. subtilis 168 strain in the presence of 0.1 μg/mL gentamicin (Gm) and potentiators: MNS2 (A), MNS3 (B), MNS4 (C), MNS5 (D) and MNS6 (E). The cells were grown at 37 °C with aeration in a Bioscreen C automated growth assay system. The curves represent the mean values of three independent experiments with an error of <5%. Evaluation of hydrogen sulfide production by B. subtilis 168 cells in the presence of the potentiators studied (F): MNS2 (100 µM), MNS3 (90 µM), MNS4 (60 µM), MNS5 (60 µM) and MNS6 (100 µM). The filter paper strips soaked in 2% lead acetate solution show brown staining with PbS salt as a result of H2S evaporation by the bacterial suspension. The numbers indicate H2S production relative to wild-type cells. TEXT PRINTED IN THE PICTURE: (F) MNS2: 100% | (F) MNS3: >120% | (F) MNS4: >120% | (F) MNS5: <35% | (F) MNS6: <35% DOUBTS OF THE COPYIST ABOUT THIS PICTURE: Panel F: the picture prints no measure for the percentages, so they are given without one. / Panel F: the column "Control" (100%) is left out because it is not a substance.

Another series in a line: MTT test, cytotoxicity. In kind it is cell-based. The settings on record: human, HEK293T cells; MTT test, 72 h; concentration required to inhibit 50% cell culture growth; read-out: CC50 of compounds (HEK273T). The method, then: (§2) HEK293T cells were grown in the DMEM:F12 (2:1) medium supplemented with 10% FBS (BioSera, Cholet, France), 2 mM L-glutamine, 100 U/mL penicillin and 100 μg/mL streptomycin in the presence of 5% CO2 at 37 °C. Cells were re-seeded every three days at a ratio of 1:3 or 1:5.
(§3) Stock solutions were diluted in DMSO (BioReagent of molecular biology grade, Sigma, St. Louis, MO, USA), and the final DMSO concentration was 1%. After 24 h (30–40% monolayer), the solutions of the studied compounds diluted at different concentrations were introduced to the culture medium. After the incubation at 37 °C in 5% CO2 for 72 h, a freshly prepared solution of thiazolyl blue tetrazolium bromide at a final concentration of 0.4 mg/mL was added to each well of the plate. Incubation was performed at +37 °C for 2 h. The medium containing unreacted MTT was removed via aspiration. The formed formazan dye was dissolved in 100 µL of isopropanol added to each well of the plate. The result of the analysis was evaluated using a Tecan Spark spectrophotometer (absorbance at 544 nm).
A general note: Formazan colour is commonly taken as a measure of viable cells.

Series [5] concerns B. subtilis 168 strain. In words: Gentamicin-potentiating activity, growth curves (Bioscreen C). In kind it is cell-based, Bacillus subtilis. The settings on record: for MIC with Gm (B. subtilis): potentiator concentration in the presence of 0.1 µg Gm (0.1 MIC; MICGm = 1 µg/mL), potentiator varied with an interval of 10 μM. As for the experimental part: We selected the B. subtilis 168 strain as the model micro-organism to determine the potentiating properties of the new compounds. The active center of the proposed target protein, cystathionine γ-lyase, has a conservative structure for a wide range of micro-organisms, including pathogens; thus, B. subtilis can be used as a less toxic model object containing the CGL enzyme for testing. The efficiency of CGL inhibitors was assessed by the standard minimum inhibitory concentration (MIC) assay. The potentiating properties were investigated according to the technique reported previously for NL2 [10]. The MIC of gentamicin for B. subtilis cells is 1 μg/mL, which is consistent with known CLSI breakpoints for the genus Bacillus. […] In addition, we tested the effect of the compounds on the generation of hydrogen sulfide by the B. subtilis cell culture (Figure 2F). […] The latter effect, however, may be attributed to the presence of the sulfur atom in the structure of these inhibitors assuming their possible hydrolysis if not bound to the enzyme in the cellular environment.
(§4) Gentamicin-potentiating activity testing of the compounds in B. subtilis. The growth curves of B. subtilis were obtained with a Bioscreen C automated growth curve analysis system (Oy Growth Curves Ab, Finland, Helsinki). The B. subtilis strain 168 was grown overnight in LB at 37 °C and diluted with fresh medium (1:100) containing the antibiotic and a test compound as specified in the text and figure captions. Aliquots (150 μL) of each mixture were added into plate wells in triplicate and incubated with continuous agitation at 37 °C. The optical density at 600 nm (OD600) was recorded automatically for 24 h. The results were averaged over three replicate experiments to plot the time dependences of bacterial growth.
as §1, with “TEXT PRINTED IN THE PICTURE: (F) MNS2: 100% | (F) MNS3: >120% | (F) MNS4: >120% | (F) MNS5: <35% | (F) MNS6: <35% DOUBTS OF THE COPYIST ABOUT THIS PICTURE: Panel F: the picture prints no measure for the percentages, so they are given without one. / Panel F: the column "Control" (100%) is left out because it is not a substance.” left out

Series [6] has as its system B. subtilis 168 strain. The experiment in a line: Kanamycin A-potentiating activity, growth curves. In kind it is cell-based, Bacillus subtilis. The note with it: potentiator concentration in the presence of 0.25 µg Km (MICKm = 2 µg/mL); potentiator varied with an interval of 10 μM. The method, then:
The potentiating properties and minimum inhibitory concentration (MIC) were assessed similarly to the testing with gentamicin, and additionally, the previously reported MNS1 was used for comparison (Figure 3). The MIC of kanamycin A for B. subtilis cells is 2 μg/mL. […] A lower cytotoxic effect on HEK273T culture (Table 1) allows us to conclude that MNS3 is the hit compound in the series (the experimental curves for CC50 estimation via the MTT test are given in the Supplementary Information File).
as §4
Figure 3 Determination of the potentiating properties of compounds.

For series [7], the target named is hCSE. Also on record: method as in PMID 34112687, PMID 37110802, doi:10.1016/j.mencom.2024.02.030, PMID 39970094, PMID 38771206. The settings on record: Figure 1; cited from earlier work. This is another data set of the same source.
For series [8], the system named is B. subtilis 168 strain. Also on record: method as in PMID 39970094. The settings on record: parent MNS1, in the presence of 0.1 µg Gm; previously known data for gentamicin potentiation; cited from earlier work.
The test system of another series is HEK273T. The experiment in a line: MTT test, cytotoxicity. In kind it is cell-based. The settings on record: in words, conclusions. The method, then:
as §2, §3

The subject of a further series is B. subtilis cells. In words: MIC of the antibiotic alone, microdilution method (CLSI). Type of series: cell-based, Bacillus subtilis. As for the experimental part: Standardized MIC was determined using the microdilution method, as recommended by the Clinical and Laboratory Standards Institute (CLSI). […] The B. subtilis inoculate (100 μL) contained 1.0 × 10^6 CFU/mL. The minimum inhibitory concentration (MIC) was defined as the lowest antibiotic concentration that prevented turbidity in the inoculate following incubation at 37 °C for a duration of 24 h. Gentamycin was used at 0.1 μg/mL (10% of MIC) in further experiments.

Read-outs that look alike come from different tables or passages of the source.

As usually defined, the IC50 is the concentration at which inhibition is half-maximal. Turning to `Cc1oc(Cn2ccc3ccc(Br)cc32)cc1C(=O)O` [NL2], the 50% inhibitory concentration (IC50) in the series on hCSE [1] is 25.3 ± 2.6 µM; in the series with bCSE [3], 1.8 ± 0.5 µM. For the same compound, the Kd at bCSE [2] (Figure 1, marked "our data", read-out: KD (bCSE)) was 1.1 ± 0.3 µM.

For orientation: CC50 means the concentration that lowers cell viability or growth by half. In the case of `Cc1oc(Cn2cc3ccc(Br)cc3n2)cc1C(=O)O` [MNS6, 5-((6-Bromo-2H-indazol-2-yl)methyl)-2-methylfuran-3-Carboxylic Acid], the “rate of hydrogen sulfide generation compared to the control group of cells” value (from here on “rate … compared to the control group of cells”) in series [4] is reported as “significantly reduced”. Besides, the half-maximal cytotoxic concentration (CC50) at 72 h in the series “MTT test, cytotoxicity” was 260 µM.

Take `Cc1oc(Cn2ncc3ccc(Br)cc32)cc1C(=O)O` [MNS5, 5-((6-Bromo-1H-indazol-1-yl)methyl)-2-methylfuran-3-carboxylic Acid]: the “rate … compared to the control group of cells” value in [4] is “significantly reduced”. The half-maximal cytotoxic concentration (CC50) at 72 h in “MTT test, cytotoxicity” was 250 µM. Moreover, in the series with B. subtilis 168 strain [5], the “MIC with Gm (B. subtilis)” value is around 60 µM. Moreover, the “MIC with Km (B. subtilis)” value with B. subtilis 168 strain [6] was 100 µM.

Regarding `O=C(O)c1ccc(Cn2ccc3ccc(Br)cc32)cc1` [3h], the Kd on bCSE [2] (Figure 1, read-out: KD (bCSE)) was 0.8 ± 0.3 µM.

Regarding `Nc1cc(Cn2ccc3ccc(Br)cc32)sc1C(=O)[O-].[K+]` [MNS2, Potassium 3-Amino-5-((6-bromo-1H-indol-1-yl)methyl)thiophene-2-carboxylate], in series [4], the “rate … compared to the control group of cells” value is reported as “enhanced”. For the same compound, in the series “MTT test, cytotoxicity”, the CC50 at 72 h was found to be 25 µM. Also, the “inhibition of B. subtilis growth in combinations with gentamicin” value with B. subtilis 168 strain [5] (concentration range from 50 to 100 µM) is recorded as “failed to inhibit”.

For `Nc1csc(Cn2ccc3ccc(Br)cc32)c1` [MNS1], the Kd is 11.6 ± 0.1 µM at hCSE [7]; 0.59 ± 0.04 µM on bCSE [2] (Figure 1, read-out: KD (bCSE)); around 0.6 µM at bCSE [2] (introduction, read-out: binding constant with CGL). The “MIC with Gm (B. subtilis)” value in the series with B. subtilis 168 strain [8] is around 50 µM. In addition, the half-maximal cytotoxic concentration (CC50) at 72 h in the series “MTT test, cytotoxicity” is 30 µM. Further, in the series with B. subtilis 168 strain [6], the “MIC with Km (B. subtilis)” value stood at 100 µM.

Regarding `Nc1cc(Cn2cc3ccc(Br)cc3n2)sc1C(=O)[O-].[K+]` [MNS4, Potassium 3-Amino-5-((6-bromo-2H-indazol-2-yl)methyl)thiophene-2-carboxylate], the “cytotoxicity in HEK273T” value in the series with HEK273T is given as “moderate cytotoxicity”. Besides, the 50% cytotoxic concentration (CC50) at 72 h in “MTT test, cytotoxicity” was 87 µM. Besides, the “MIC with Gm (B. subtilis)” value in the series with B. subtilis 168 strain [5] was around 60 µM. The “MIC with Km (B. subtilis)” value with B. subtilis 168 strain [6] is 70 µM.

For the compound `O=C(O)c1cc(Cn2ccc3ccc(-c4cc5cccc(Cl)c5s4)cc32)n[nH]1` [NL3], the half-maximal inhibitory concentration (IC50) with hCSE [1] was 3.4 ± 0.8 µM; with bCSE [3], 0.7 ± 0.2 µM.

In the case of `O=C(O)CNC(=O)Cn1ccc2ccc(Br)cc21` [NL1], the figures for the IC50 with hCSE [1] and in the series on bCSE [3] were 29.2 ± 2 µM and 5.8 ± 2.7 µM, respectively.

As for kanamycin A, the “MIC of kanamycin A for B. subtilis cells” value with B. subtilis cells was found to be 2 µg/mL.

As usually defined, the MIC is the least concentration at which growth counts as inhibited. On to `CNC(C)C1CCC(N)C(OC2C(N)CC(N)C(OC3OCC(C)(O)C(NC)C3O)C2O)O1` (stereo not shown) [gentamicin], for which, in the series on B. subtilis cells (Bacillus subtilis, 37 °C, 24 h, read-out: MIC of gentamicin for B. subtilis cells), the MIC is 1 µg/mL.

On to `Nc1cc(Cn2ncc3ccc(Br)cc32)sc1C(=O)[O-].[K+]` [MNS3, Potassium 3-Amino-5-((6-bromo-1H-indazol-1-yl)methyl)thiophene-2-carboxylate], for which the “rate … compared to the control group of cells” value in [4] is reported as “enhanced”. Further, the “cytotoxicity in HEK273T” value with HEK273T was “moderate cytotoxicity”. Further, the CC50 at 72 h in “MTT test, cytotoxicity” was 190 µM. The “MIC with Gm (B. subtilis)” value in the series on B. subtilis 168 strain [5] is around 90 µM. Also, the “MIC with Km (B. subtilis)” value in the series on B. subtilis 168 strain [6] is 90 µM.

The values are drawn from publication PMC11767297, “6-Bromoindole- and 6-Bromoindazole-Based Inhibitors of Bacterial Cystathionine γ-Lyase Containing 3-Aminothiophene-2-Carboxylate Moiety” (Molecules, 2025).
